One data set concerns the target T1, JAK3 enzyme (Homo sapiens, UniProt P52333).
T1 sequence (P52333 1-1124): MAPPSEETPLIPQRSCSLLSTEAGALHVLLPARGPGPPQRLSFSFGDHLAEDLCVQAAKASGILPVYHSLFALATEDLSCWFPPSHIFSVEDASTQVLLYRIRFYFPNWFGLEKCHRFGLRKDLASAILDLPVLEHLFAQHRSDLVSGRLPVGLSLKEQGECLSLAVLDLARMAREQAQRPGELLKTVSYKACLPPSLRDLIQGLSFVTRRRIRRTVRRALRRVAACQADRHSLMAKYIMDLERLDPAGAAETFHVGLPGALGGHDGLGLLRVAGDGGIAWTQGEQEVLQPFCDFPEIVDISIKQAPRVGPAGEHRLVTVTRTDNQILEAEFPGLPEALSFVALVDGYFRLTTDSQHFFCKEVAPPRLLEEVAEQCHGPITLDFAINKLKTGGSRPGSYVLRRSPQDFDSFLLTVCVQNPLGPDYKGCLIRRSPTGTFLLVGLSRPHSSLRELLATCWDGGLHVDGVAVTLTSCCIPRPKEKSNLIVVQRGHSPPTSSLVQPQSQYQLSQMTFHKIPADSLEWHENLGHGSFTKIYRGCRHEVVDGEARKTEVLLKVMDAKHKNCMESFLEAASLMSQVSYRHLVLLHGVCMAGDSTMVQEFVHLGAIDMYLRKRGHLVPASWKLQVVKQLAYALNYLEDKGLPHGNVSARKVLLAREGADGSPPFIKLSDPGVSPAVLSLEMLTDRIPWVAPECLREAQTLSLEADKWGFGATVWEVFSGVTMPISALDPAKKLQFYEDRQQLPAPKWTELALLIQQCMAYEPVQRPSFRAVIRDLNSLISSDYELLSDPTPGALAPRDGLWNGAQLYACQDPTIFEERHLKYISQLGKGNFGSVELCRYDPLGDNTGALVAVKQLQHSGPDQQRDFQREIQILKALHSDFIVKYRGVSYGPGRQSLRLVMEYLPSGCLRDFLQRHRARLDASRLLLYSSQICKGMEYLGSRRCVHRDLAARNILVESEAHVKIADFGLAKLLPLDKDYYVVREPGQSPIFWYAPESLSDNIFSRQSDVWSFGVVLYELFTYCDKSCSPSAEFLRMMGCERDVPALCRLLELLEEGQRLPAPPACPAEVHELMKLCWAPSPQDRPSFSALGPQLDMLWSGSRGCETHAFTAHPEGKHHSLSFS
Put plainly: JAK Caliper Enzyme Assay at 1 mM ATP. In kind it is biochemical. The gist of the method:
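Substrate conversion was kept within 20%-30% by adjusting enzyme and incubation for every preparation; peptide phosphorylation was quantified via on-chip mobility shift.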

A short description of data set [1]: Stability of JAK3 Covalent Inhibitors in Human Whole Blood. In kind it is in vitro ADME. Conditions: both sexes, 1 μM test compound, 37° C., 180 min incubation, read-out: Human blood stability t1/2. The gist of the method: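 Parent remaining versus time was derived from LC-MS/MS peak area ratios to internal standard after acetonitrile quench. Incubations ran for 180 min at 37° C, in duplicate, with 1 μM test compound in pooled K2-EDTA human blood (two healthy donors).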

The subject of data set [2] is IL-15 induced STAT5 phosphorylation in human whole blood lymphocytes. Put plainly: HWB IL-15 Induced STAT5 Phosphorylation Assay. Conditions: Lymphocyte, IL-15 final 50 ng/ml, read-out: HWB_IL15 pSTAT5 IC50. In kind it is cell-based. The gist of the method:
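Heparinised human whole blood preincubated with compound (0.2% DMSO final) 45 min at 37° C, then stimulated with human IL-15 (50 ng/ml final) for 15 min. After lyse/fix and Perm Buffer III permeabilisation, stained overnight at 4° C with AlexaFluor647 anti-phospho-STAT5; read by flow cytometry gated on total lymphocytes.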

Some results are limits rather than exact numbers.

The IC50 is the concentration at which inhibition is half-maximal. On to `C=CC(=O)N1CC[C@H](Nc2cnc3[nH]cc(C(=O)NCC4CCCC4)c3n2)[C@H](OC)C1` [Example 284, 2-{[(3R,4S)-1-acryloyl-3-methoxypiperidin-4-yl]amino}-N-(cyclopentylmethyl)-5H-pyrrolo[2,3-b]pyrazine-7-carboxamide], for which the values for the half-inhibitory concentration (IC50) (against JAK3 enzyme; in data set [2]) were 0.042 µM and 0.819 µM, respectively. Also, in data set [1], the half-life at 1 μM was over 6 h.
For `C=CC(=O)N1CCN(c2cnc3[nH]cc(C(=O)NCC(C)C)c3n2)C[C@@H]1CC(C)C` [Example 288, 2-[(3S)-4-acryloyl-3-(2-methylpropyl)piperazin-1-yl]-N-(2-methylpropyl)-5H-pyrrolo[2,3-b]pyrazine-7-carboxamide] the same measures were 0.057 µM, 2.16 µM and over 6 h.
`C=CC(=O)N1CC[C@H](Nc2cnc3[nH]cc(C(=O)NCC(F)(F)F)c3n2)[C@H](OC)C1` [Example 293, 2-{[(3R,4S)-1-acryloyl-3-methoxypiperidin-4-yl]amino}-N-(2,2,2-trifluoroethyl)-5H-pyrrolo[2,3-b]pyrazine-7-carboxamide]: the 50% inhibitory concentration (IC50) against JAK3 enzyme amounted to 0.051 µM; in data set [2] it was 0.818 µM. In addition, the half-life at 1 μM in data set [1] was found to be 3.4 h.
For `C=CC(=O)N1CCN(c2cnc3[nH]cc(C(=O)N[C@@H](C)COC)c3n2)CC1` [Example 295, 2-(4-acryloylpiperazin-1-yl)-N-[(2S)-1-methoxypropan-2-yl]-5H-pyrrolo[2,3-b]pyrazine-7-carboxamide], in that order: 0.029 µM, 0.199 µM and 2.22 h.
For `C=CC(=O)N1CCN(c2cnc3[nH]cc(C(=O)N[C@@H](C)COC)c3n2)CC1(C)C` [Example 298, 2-(4-acryloyl-3,3-dimethylpiperazin-1-yl)-N-[(2S)-1-methoxypropan-2-yl]-5H-pyrrolo[2,3-b]pyrazine-7-carboxamide] the same measures were 0.069 µM, 1.28 µM and over 6 h.
As for `C=CC(=O)N1CCN(c2cnc3[nH]cc(C(=O)N[C@H](CC)CC#N)c3n2)C[C@@H]1CC(C)C` [Example 314, 2-[(3S)-4-acryloyl-3-(2-methylpropyl)piperazin-1-yl]-N-[(2R)-1-cyanobutan-2-yl]-5H-pyrrolo[2,3-b]pyrazine-7-carboxamide], the figures for the IC50 (against JAK3 enzyme; in data set [2]) were 0.03 µM and 0.402 µM, respectively. Also, the half-life at 1 μM in data set [1] was 3.12 h.
For `C=CC(=O)N1CC[C@H](Nc2cnc3[nH]cc(C(=O)NCCCC(F)(F)F)c3n2)[C@H](OC)C1` [Example 319, 2-{[(3R,4S)-1-acryloyl-3-methoxypiperidin-4-yl]amino}-N-(4,4,4-trifluorobutyl)-5H-pyrrolo[2,3-b]pyrazine-7-carboxamide], in that order: 0.045 µM, 0.396 µM and 5.57 h.
For `C=CC(=O)N1CC[C@@H](Nc2cnc3[nH]cc(C(=O)NCC(C)(F)F)c3n2)[C@@H](OC)C1` [Example 321, 2-{[(3S,4R)-1-acryloyl-3-methoxypiperidin-4-yl]amino}-N-(2,2-difluoropropyl)-5H-pyrrolo[2,3-b]pyrazine-7-carboxamide], in that order: 0.046 µM, 0.999 µM and over 6 h.
For `C=CC(=O)N1CCC(C)(Nc2cnc3[nH]cc(C(=O)NC4CCC4)c3n2)CC1` [Example 324, 2-[(1-acryloyl-4-methylpiperidin-4-yl)amino]-N-cyclobutyl-5H-pyrrolo[2,3-b]pyrazine-7-carboxamide], in that order: 0.021 µM, 1.27 µM and 4.3 h.
As for `C=CC(=O)N1CC[C@H](Nc2cnc3[nH]cc(C(=O)NCC)c3n2)[C@H](OC)C1` [Example 326, 2-{[(3R,4S)-1-acryloyl-3-methoxypiperidin-4-yl]amino}-N-ethyl-5H-pyrrolo[2,3-b]pyrazine-7-carboxamide], the figures for the IC50 (against JAK3 enzyme; in data set [2]) were 0.05 µM and 0.78 µM, respectively. Moreover, in data set [1], the half-life at 1 μM was over 6 h.
For `C=CC(=O)N1CCN(c2cnc3[nH]cc(C(=O)N[C@H](C)COC)c3n2)CC1(C)C` [Example 327] the same measures were 0.056 µM, 1.04 µM and over 6 h.
Consider `C=CC(=O)N1CC[C@@H](Nc2cnc3[nH]cc(C(=O)N[C@H](C)COC)c3n2)[C@@H](OC)C1` [Example 331, 2-{[(3S,4R)-1-acryloyl-3-methoxypiperidin-4-yl]amino}-N-[(2R)-1-methoxypropan-2-yl]-5H-pyrrolo[2,3-b]pyrazine-7-carboxamide], for which the results for the IC50 (against JAK3 enzyme; in data set [2]) were 0.042 µM and 0.263 µM, respectively. Further, the half-life at 1 μM in data set [1] was determined as 5.52 h.
For `C=CC(=O)N1CCN(c2cnc3[nH]cc(C(=O)N[C@H](C)COC)c3n2)CC1` [Example 332] the same measures were 0.022 µM, 0.221 µM and 2.42 h.

These data come from patent US10703756B2, “Pyrrolo[2,3-D]pyrimidinyl, pyrrolo[2,3-B]pyrazinyl, pyrrolo[2,3-B]pyridinyl acrylamides and epoxides thereof” (Pfizer Inc., priority 2015, dated 2020).
